“And” between values parts separate entries of the source, which are not always exact repeats. Equal entries are not always repeated.
Tested on: serum uric acid
Experiment: Multi-dose Phase I clinical trial, serum uric acid (sUA), once daily for 10 days
Assay type: in vivo, human
Settings: for % sUA change (from baseline), Mean (3-11) / Absolute sUA concentration, Mean (3-11): group 9, 10 mg once daily for 10 days, mean of subjects 3-11; for % sUA change (from baseline), Mean (4-12) / Absolute sUA concentration, Mean (4-12) / Absolute sUA concentration: group 7, 1 mg once daily for 10 days; for % sUA change (from baseline), Mean (4-12) / Absolute sUA concentration, Mean (4-12): mean of subjects 4-12; for Absolute sUA concentration: individual subjects 4-12
Source text: A Phase 1, Randomized, Double-Blind, Placebo-Controlled Study to Evaluate Safety, Tolerability, Pharmacokinetics and Preliminary Food Effect of Multiple Rising Doses of a URAT1 Inhibitor, in Healthy Adult Male Volunteers.
Fasted subjects receive oral doses of active or placebo, once daily, for 10 days, at the following doses:
36 subjects in 3 dose groups, 12 subjects/group, are randomized […] to receive active (9/group) or placebo ([…]). All study procedures are the same regardless of whether subject receives active or placebo. Total duration of subject participation, including screening period, is ˜2-4 weeks, and the total volume of blood collected from each subject during the entire study <500 mL, (less than typically collected during a volunteer blood donation).
5 mg, active and placebo, tablets packaged in 35 count HDPE bottles, stored at controlled room temperature (15-30° C.). Placebo tablets are designed to match the active tablets—identical size, form, taste, and color, and containing the same excipients. 1 mg doses were administered as oral solutions.
Subjects dosed in the morning of Days 1-10 with ˜240 mL of room temp water.
Urine, serum and plasma samples collected periodically
PD samples frozen (−20° C.) and stored; all samples from a given subject assayed in a single analytical run.

## CC(C)(Sc1ccncc1-c1ccc(C#N)c2ccccc12)C(=O)O [2-((3-(4-cyanonaphthalen-1-yl)pyridin-4-yl)thio)-2-methylpropanoic acid]
Time 0 (baseline)
  % sUA change (from baseline), Mean (3-11): 0%
  Absolute sUA concentration, Mean (3-11): 6.4 mg/dL
Time 6
  % sUA change (from baseline), Mean (3-11): −30.2%
  Absolute sUA concentration, Mean (3-11): 4.5 mg/dL
  % sUA change (from baseline), Mean (4-12): −3.0%
  Absolute sUA concentration, Mean (4-12): 6.0 mg/dL
Time 12
  % sUA change (from baseline), Mean (3-11): −36.8%
  Absolute sUA concentration, Mean (3-11): 4.1 mg/dL
  % sUA change (from baseline), Mean (4-12): −9.2%
  Absolute sUA concentration, Mean (4-12): 5.6 mg/dL
Time 24
  % sUA change (from baseline), Mean (3-11): −32.0%
  Absolute sUA concentration, Mean (3-11): 4.4 mg/dL
  % sUA change (from baseline), Mean (4-12): 1.4%
  Absolute sUA concentration, Mean (4-12): 6.2 mg/dL
Time 48
  % sUA change (from baseline), Mean (3-11): −35.0%
  Absolute sUA concentration, Mean (3-11): 4.1 mg/dL
  % sUA change (from baseline), Mean (4-12): −17.6%
  Absolute sUA concentration, Mean (4-12): 5.1 mg/dL
Time 72
  % sUA change (from baseline), Mean (3-11): −49.7%
  Absolute sUA concentration, Mean (3-11): 3.2 mg/dL
  % sUA change (from baseline), Mean (4-12): −3.4%
  Absolute sUA concentration, Mean (4-12): 6.0 mg/dL
Time 96
  % sUA change (from baseline), Mean (3-11): −53.7%
  Absolute sUA concentration, Mean (3-11): 3.0 mg/dL
  Absolute sUA concentration: 5.0 mg/dL (2×) and 5.1 mg/dL (2×) and 6.7 mg/dL (2×) and 6.1 mg/dL and 6.0 mg/dL and 5.5 mg/dL
  % sUA change (from baseline), Mean (4-12): −7.9%
  Absolute sUA concentration, Mean (4-12): 5.7 mg/dL
Time 102
  % sUA change (from baseline), Mean (3-11): −55.2%
  Absolute sUA concentration, Mean (3-11): 2.9 mg/dL
  Absolute sUA concentration: 4.4 mg/dL and 4.9 mg/dL (2×) and 6.2 mg/dL (2×) and 5.9 mg/dL and 5.7 mg/dL and 4.6 mg/dL and 5.4 mg/dL
  % sUA change (from baseline), Mean (4-12): −13.2%
  Absolute sUA concentration, Mean (4-12): 5.4 mg/dL
Time 108
  % sUA change (from baseline), Mean (3-11): −57.2%
  Absolute sUA concentration, Mean (3-11): 2.7 mg/dL
  Absolute sUA concentration: 4.1 mg/dL and 4.4 mg/dL and 4.8 mg/dL and 6.1 mg/dL and 5.9 mg/dL and 5.4 mg/dL and 5.6 mg/dL and 4.3 mg/dL and 5.0 mg/dL
  % sUA change (from baseline), Mean (4-12): −18.0%
  Absolute sUA concentration, Mean (4-12): 5.1 mg/dL
Time 120
  % sUA change (from baseline), Mean (3-11): −47.0%
  Absolute sUA concentration, Mean (3-11): 3.4 mg/dL
  Absolute sUA concentration: 4.6 mg/dL and 5.0 mg/dL (2×) and 4.9 mg/dL and 6.6 mg/dL and 6.2 mg/dL (2×) and 5.8 mg/dL and 5.6 mg/dL
  % sUA change (from baseline), Mean (4-12): −10.3%
  Absolute sUA concentration, Mean (4-12): 5.5 mg/dL
Time 144
  % sUA change (from baseline), Mean (3-11): −44.3%
  Absolute sUA concentration, Mean (3-11): 3.5 mg/dL
  Absolute sUA concentration: 4.6 mg/dL and 5.0 mg/dL (2×) and 4.8 mg/dL and 6.5 mg/dL and 6.2 mg/dL and 6.1 mg/dL and 5.8 mg/dL and 5.5 mg/dL
  % sUA change (from baseline), Mean (4-12): −11.0%
  Absolute sUA concentration, Mean (4-12): 5.5 mg/dL
Time 168
  % sUA change (from baseline), Mean (3-11): −49.6%
  Absolute sUA concentration, Mean (3-11): 3.2 mg/dL
  Absolute sUA concentration: 5.2 mg/dL and 5.8 mg/dL and 5.6 mg/dL and 7.2 mg/dL and 6.8 mg/dL and 6.3 mg/dL and 6.5 mg/dL and 5.4 mg/dL and 6.2 mg/dL
  % sUA change (from baseline), Mean (4-12): −0.8%
Time 192
  % sUA change (from baseline), Mean (3-11): −55.8%
  Absolute sUA concentration, Mean (3-11): 2.8 mg/dL
Time 216
  % sUA change (from baseline), Mean (3-11): −51.3%
  Absolute sUA concentration, Mean (3-11): 3.1 mg/dL
Time 222, post dosing
  % sUA change (from baseline), Mean (3-11): −56.1%
  Absolute sUA concentration, Mean (3-11): 2.8 mg/dL
Time 228, post dosing
  % sUA change (from baseline), Mean (3-11): −57.8%
  Absolute sUA concentration, Mean (3-11): 2.7 mg/dL
Time 240, post dosing
  % sUA change (from baseline), Mean (3-11): −48.6%
  Absolute sUA concentration, Mean (3-11): 3.3 mg/dL
Time 246, post dosing
  % sUA change (from baseline), Mean (3-11): −42.8%
  Absolute sUA concentration, Mean (3-11): 3.7 mg/dL
Time 252, post dosing
  % sUA change (from baseline), Mean (3-11): −43.6%
  Absolute sUA concentration, Mean (3-11): 3.6 mg/dL
Time 264, post dosing
  % sUA change (from baseline), Mean (3-11): −38.9%
  Absolute sUA concentration, Mean (3-11): 3.9 mg/dL
Time 270, post dosing
  % sUA change (from baseline), Mean (3-11): −36.1%
  Absolute sUA concentration, Mean (3-11): 4.1 mg/dL
Time 288, post dosing
  % sUA change (from baseline), Mean (3-11): −35.1%
  Absolute sUA concentration, Mean (3-11): 4.2 mg/dL
Time 312, post dosing
  % sUA change (from baseline), Mean (3-11): −25.9%
  Absolute sUA concentration, Mean (3-11): 4.7 mg/dL
Time 0
  % sUA change (from baseline), Mean (4-12): 0%
  Absolute sUA concentration, Mean (4-12): 6.2 mg/dL

Reference: patent publication US10047050B2, “3,4-di-substituted pyridine compound, methods of using and compositions comprising the same” (ARDEA BIOSCIENCES, INC., priority 2011, dated 2018)
